Measured values reported in publication PMC9645344, “Serotonin-releasing agents with reduced off-target effects” (Molecular Psychiatry, 2022).

How the values were obtained:
Format in all cases: cell-based
human SERT = biological target: T1, human SERT (Homo sapiens, UniProt P31645); assay: SERT uptake inhibition assay in HEK293 cells ([3H]5-HT)
T1 construct: expressed in transfected cells
Protocol: Human embryonic kidney 293 (HEK293) cells stably expressing the human isoforms of either DAT or SERT were maintained in Dulbecco’s Modified Eagle Medium (DMEM), supplemented with 10% fetal calf serum at a subconfluent state in humidified atmosphere (5% CO2, 37 °C).
Uptake inhibition assays were performed as described earlier. Briefly, HEK293 cells stably expressing human SERT or DAT were seeded onto poly- D-lysine (PDL) coated 96-well plates (40,000 cells well^−1) the day before an experiment. Prior to the uptake inhibition assay, DMEM was replaced with Krebs-HEPES buffer (KHB, 25 mM HEPES, 120 mM NaCl, 5 mM KCl, 1.2 mM CaCl2, 1.2 mM MgSO4, and 5 mM D-glucose, pH 7.3) and the cells were preincubated with test drugs for 5 min at room temperature. Uptake assays were initiated by adding 20 nM [^3H]MPP^+ to DAT cells or 100 nM [^3H]5-HT to SERT cells. After 180 s (DAT) or 60 s (SERT), the tritiated substrate was removed by aspiration. Cells were washed once with ice-cold KHB, then lysed in 1% sodium dodecyl sulfate (SDS) and subjected to liquid scintillation counting to quantify tritium accumulated in each sample. Non-specific uptake was determined in the presence of mazindol (1 µM) for DAT or paroxetine (1 µM) for SERT and subtracted throughout.

5-HT2A receptor = biological target: T2, 5-HT2A receptor (Homo sapiens, UniProt P28223); assay: 5-HT receptor-dependent induction of GCamP6s fluorescence in HEK293 cells; settings: GCamP6s fluorescence normalized to 1 µM 5-HT
T2 construct: expressed in transfected cells
T2 sequence (P28223 whole entry): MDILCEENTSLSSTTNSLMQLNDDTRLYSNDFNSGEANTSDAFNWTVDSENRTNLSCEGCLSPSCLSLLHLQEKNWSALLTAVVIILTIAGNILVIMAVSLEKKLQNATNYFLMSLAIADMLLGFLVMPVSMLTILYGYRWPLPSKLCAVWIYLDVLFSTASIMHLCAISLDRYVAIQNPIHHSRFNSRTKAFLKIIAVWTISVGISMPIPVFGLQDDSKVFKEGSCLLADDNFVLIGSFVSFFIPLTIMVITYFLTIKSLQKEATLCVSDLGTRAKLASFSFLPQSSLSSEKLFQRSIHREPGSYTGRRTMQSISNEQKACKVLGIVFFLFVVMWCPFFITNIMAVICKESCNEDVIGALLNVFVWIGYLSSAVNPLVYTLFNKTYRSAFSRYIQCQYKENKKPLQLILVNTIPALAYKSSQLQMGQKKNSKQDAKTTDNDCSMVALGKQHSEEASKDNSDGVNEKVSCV
Protocol: (§1) All cloning steps were performed using NEB Builder (New England Biolabs, Frankfurt/Main, Germany). GCamP6s was cloned into pcDNA3.1. GCaMP is a genetically encoded calcium indicator which allows measurement of calcium flux. To allow for visual inspection of co-expressed 5-HT2 receptors, the enhanced cyan fluorescent protein (eCFP) was added to the C-Terminus of the 5-HT2 receptors. The resulting constructs were then cloned into pcDNA4-TO to allow tetracycline dependent expression.
(§2) In a first step, HEK293 cells were transfected with pcDNA6-TR and cells stably expressing the Tet-repressor were selected by the addition of blasticidin (60 µg ml^−1). In a second step, one of the resulting clones was transfected with one of the 5-HT2 receptor constructs and stable clones were selected by the addition of zeocin (150 µg ml^−1). Suitable clones were selected by visual inspection of the eCFP signal at the plasma membrane. In a last step, the eCFP positive clones were transfected with GCamp6s, and stable clones were selected using G418 (250 µg ml^−1). The resulting clones were sorted via FACS to isolate GCaMP6s (green fluorescent protein) positive cells and the resulting polyclonal cell lines were used for further experiments. Cells were maintained in DMEM supplemented with 2% fetal bovine serum, blasticidin, zeocin, and G418 at concentrations described above. To induce receptor expression, tetracycline (1 µg ml^−1) was added to the medium 18–24 h prior to the experiment.
(§3) Imaging experiments were performed at room temperature (22–27 °C). Medium was exchanged for KHB 10 min prior to the experiment and cells were continuously superfused with KHB, using a fast superfusion device (DAD12, ALA Scientific, Farmingdale, NY, USA). Test drugs (0.1, 1, 10 µM) or 5-HT (1 µM) were applied for 30 s, interleaved by KHB superfusion for 300 s. GCamp6s fluorescence was monitored using an inverted microscope (Nikon Eclipse Ti2) equipped with a Nikon ×40 WI (NA 1.25) objective (Nikon Europe, Amsterdam, Netherlands). Fluorescence was excited using a 470 nm LED (Coolled pe4000, Coolled, Andover, NY, USA). Excitation light was filtered through a 480/20 nm bandpass filter and reflected via 505 nm dichroic mirror. Emission light was filtered using a 535/25 nm optical bandpass filter (Nikon Europe, Amsterdam, Netherlands). Images were taken at a frequency of 1 image s^−1 with an exposure time of 20–30 ms using an sCMOS camera (Andor Zyla 5.5, Oxford Instruments, Abingdon, UK) and NIS-Elements 5.2 software (Laboratory Imaging, Praha, Czech Republic).
(§4) Image Stacks were background corrected by subtracting the mean intensity of […]. For each image the mean fluorescence intensity of 1–5 ROIs consisting of several clustered cells was measured. The change in intensity of the GCamP6s fluorescence was calculated as the intensity at the end of test drug application minus the intensity before substance application, normalized to the increase of fluorescence evoked by the application of 1 µM 5-HT. Data represent 1–5 fields of view from three independent experiments

5-HT2B receptor = 5-HT2B receptor (Homo sapiens, UniProt P41595); assay: as above; settings: GCamP6s fluorescence normalized to 1 µM 5-HT
5-HT2B receptor, sequence (P41595 whole entry): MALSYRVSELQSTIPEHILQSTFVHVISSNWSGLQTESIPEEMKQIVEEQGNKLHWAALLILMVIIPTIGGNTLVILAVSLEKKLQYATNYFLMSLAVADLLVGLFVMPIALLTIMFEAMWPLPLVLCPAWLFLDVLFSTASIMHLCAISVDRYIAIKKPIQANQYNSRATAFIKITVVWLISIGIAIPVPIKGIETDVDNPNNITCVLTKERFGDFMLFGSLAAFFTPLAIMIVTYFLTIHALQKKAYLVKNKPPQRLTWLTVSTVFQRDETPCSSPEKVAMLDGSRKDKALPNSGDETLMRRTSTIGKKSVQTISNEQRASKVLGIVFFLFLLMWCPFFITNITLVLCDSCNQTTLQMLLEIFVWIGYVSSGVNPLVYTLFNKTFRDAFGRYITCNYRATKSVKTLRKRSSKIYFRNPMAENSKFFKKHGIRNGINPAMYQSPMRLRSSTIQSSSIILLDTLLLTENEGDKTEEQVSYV
Protocol: as §1, §2, §3, §4

5-HT2C receptor = biological target: T3, 5-HT2C receptor (Homo sapiens, UniProt P28335); assay: as above; settings: 1 µM; GCamP6s fluorescence normalized to 1 µM 5-HT
T3 construct: expressed in transfected cells
T3 sequence (P28335 33-458): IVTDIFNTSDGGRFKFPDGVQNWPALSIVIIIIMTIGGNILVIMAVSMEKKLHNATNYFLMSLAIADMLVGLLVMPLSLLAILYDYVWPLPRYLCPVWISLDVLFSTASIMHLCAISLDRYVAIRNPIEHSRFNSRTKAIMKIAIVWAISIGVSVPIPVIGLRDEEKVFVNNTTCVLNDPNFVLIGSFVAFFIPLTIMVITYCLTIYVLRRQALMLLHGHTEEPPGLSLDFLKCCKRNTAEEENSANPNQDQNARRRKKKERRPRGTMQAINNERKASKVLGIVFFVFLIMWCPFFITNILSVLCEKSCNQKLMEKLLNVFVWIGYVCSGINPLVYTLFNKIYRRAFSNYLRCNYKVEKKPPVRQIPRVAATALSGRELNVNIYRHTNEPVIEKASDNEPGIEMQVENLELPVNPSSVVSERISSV
Protocol: as §1, §2, §3, §4

T1 sequence (P31645 whole entry): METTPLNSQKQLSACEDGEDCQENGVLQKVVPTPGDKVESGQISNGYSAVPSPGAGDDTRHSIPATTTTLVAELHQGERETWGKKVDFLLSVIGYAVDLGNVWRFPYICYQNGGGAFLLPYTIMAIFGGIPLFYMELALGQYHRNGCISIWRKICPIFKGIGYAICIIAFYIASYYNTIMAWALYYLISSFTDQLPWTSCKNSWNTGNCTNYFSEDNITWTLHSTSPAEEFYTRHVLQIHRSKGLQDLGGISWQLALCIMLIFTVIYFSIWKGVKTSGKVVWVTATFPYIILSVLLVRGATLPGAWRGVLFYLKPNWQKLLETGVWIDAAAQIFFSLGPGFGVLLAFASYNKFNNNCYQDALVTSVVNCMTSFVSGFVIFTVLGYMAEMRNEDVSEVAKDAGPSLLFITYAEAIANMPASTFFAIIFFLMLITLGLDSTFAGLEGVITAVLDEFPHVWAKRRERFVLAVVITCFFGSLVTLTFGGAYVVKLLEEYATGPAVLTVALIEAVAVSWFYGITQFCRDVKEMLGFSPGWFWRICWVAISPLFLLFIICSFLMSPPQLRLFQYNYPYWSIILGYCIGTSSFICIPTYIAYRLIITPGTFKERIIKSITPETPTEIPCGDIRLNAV

Structure (SMILES) | IC50 (human SERT) [µM] | activation of 5-HT2A receptor (5-HT2A receptor; 1 µM) | activation of 5-HT2B receptor (5-HT2B receptor; 1 µM) | activation of 5-HT2C receptor (5-HT2C receptor) | activation of 5-HT2A receptor (5-HT2A receptor; 10 µM) | activation of 5-HT2B receptor (5-HT2B receptor; 10 µM)
CN[C@@H](C)C(=O)c1ccc(C(F)(F)F)cc1 [S-4-TFMMC, 4-trifluoromethyl-N-methylcathinone] | 10.2 | neither test drug activated | neither test drug activated | neither test drug activated | – | –
Cc1ccc(C(=O)[C@H](C)N)cc1 [S-4-MC, 4-methylcathinone] | 12.6 | neither test drug activated | neither test drug activated | neither test drug activated | displayed activity | moderate effects
